The numbers were not newly measured in patent US12137716B2, “Methods of liver disease treatment” (priority 2015, dated 2024), which cites them from elsewhere.

“Also recorded” adds a separate entry of the source.

In data set [1] the test system is rats and baboons fed ethanol.
In data set [2] the test system is HBV patients.
Data set [3] has as its system HCV patients.
The test system of data set [4] is patients with cirrhosis.
In data set [5] the test system is NASH model mice. The following applies: NASH mouse model.
For data set [6] the following is noted: oral administration.
Data set [7] deals with patients with both alcoholic and non-alcoholic liver diseases. The note with it: patients with liver disease.
For data set [8], the system named is ethanol-induced fibrotic mouse model.
Data set [9] has as its system mice fed either a MCD or MD diet.
Data set [10] concerns patients with severe ALD. The following applies: added to corticosteroids.
Data set [11] relates to ethanol-fed rats.
Data set [12] deals with CCl (4) induced cirrhosis. The following applies: CCl4 induced.

For the compound Phosphatidylcholine [PC], the liver injury result in data set [1] (CCl4 and ethanol-induced) is “attenuated CCI4 and ethanol-induced liver injury”. In addition, the procollagen-III-peptide levels result in [2] is recorded as “reduced levels”. In addition, the albumin-bound hydroxyproline levels entry in [3] is listed as “decreased levels”.

As for `N=C(N)NCCC[C@H](N)C(=O)O` [Arginine], the “hepatic microcirculation and tissue oxygenation” value in data set [4] was “improves hepatic microcirculation and tissue oxygenation”.

In the case of `C[N+](C)(C)C[C@H](O)CC(=O)[O-]` [L-Carnitine], the “progression of NASH” value in data set [5] is “prevents progression of NASH”.

Regarding `C[S+](CC[C@H](N)C(=O)O)C[C@H]1O[C@@H](n2cnc3c(N)ncnc32)[C@H](O)[C@@H]1O` (stereo partly drawn) [SAMe, S-adenosylmethionine], in [1] (ethanol-fed), the “hepatic GSH levels” value is “restored hepatic GSH levels”; the “mitochondrial lesions and leakage” value is “positive effect on mitochondrial lesions and leakage”. For the same compound, the oral bioavailability result in data set [6] is given as “low bioavailability”. In addition, the hepatic glutathione levels result in data set [7] is listed as “significant increase; also recorded: increases hepatic GSH”. For the same compound, in data set [8], the “oxidative stress and hepatic stellate cell activation” value was “attenuate oxidative stress and hepatic stellate cell activation”. Moreover, in [9], the “GSH in the mitochondria” value is “restored GSH in the mitochondria” and the hepatocellular injury result was “ameliorated hepatocellular injury”.

Consider `N[C@@H](CCC(=O)N[C@@H](CS)C(=O)NCC(=O)O)C(=O)O` [GSH, Glutathione], for which, in [9], the “GSH in the mitochondria” value is “restored GSH in the mitochondria” and the hepatocellular injury entry is reported as “ameliorated hepatocellular injury”.

With `CC(=O)N[C@@H](CS)C(=O)O` [NAC, N-acetylcysteine], in data set [10], the “hepatorenal syndrome, infection, short-term mortality” value was “decrease hepatorenal syndrome, infection, and short-term mortality”. Besides, in data set [11], the “hepatic fatty acid accumulation” value is “decrease hepatic fatty acid accumulation” and the inflammatory markers result is “decrease inflammatory markers”.

As to `COc1cc(/C=C/C(=O)CC(=O)/C=C/c2ccc(O)c(OC)c2)ccc1O` [curcumin, Curcumin], the cirrhosis entry in data set [12] was “reverses”.
